Reference: ChEMBL document CHEMBL1158598, “5-ureidobenzofuranone indoles as potent and efficacious inhibitors of PI3 kinase-alpha and mTOR for the treatment of breast cancer” (Bioorg Med Chem Lett, 2010)
≈ marks a conversion by molar mass, not a printed value. Calls of active or inactive are those of the source. The calls are words filed in the database; no cut-off is given here.

How the values were obtained:
[1] = biological target: Phosphatidylinositol 4,5-bisphosphate 3-kinase catalytic subunit alpha isoform (Homo sapiens, UniProt P42336); assay: Inhibition of PI3Kalpha
Sequence of Phosphatidylinositol 4,5-bisphosphate 3-kinase catalytic subunit alpha isoform (P42336 whole entry, canonical isoform): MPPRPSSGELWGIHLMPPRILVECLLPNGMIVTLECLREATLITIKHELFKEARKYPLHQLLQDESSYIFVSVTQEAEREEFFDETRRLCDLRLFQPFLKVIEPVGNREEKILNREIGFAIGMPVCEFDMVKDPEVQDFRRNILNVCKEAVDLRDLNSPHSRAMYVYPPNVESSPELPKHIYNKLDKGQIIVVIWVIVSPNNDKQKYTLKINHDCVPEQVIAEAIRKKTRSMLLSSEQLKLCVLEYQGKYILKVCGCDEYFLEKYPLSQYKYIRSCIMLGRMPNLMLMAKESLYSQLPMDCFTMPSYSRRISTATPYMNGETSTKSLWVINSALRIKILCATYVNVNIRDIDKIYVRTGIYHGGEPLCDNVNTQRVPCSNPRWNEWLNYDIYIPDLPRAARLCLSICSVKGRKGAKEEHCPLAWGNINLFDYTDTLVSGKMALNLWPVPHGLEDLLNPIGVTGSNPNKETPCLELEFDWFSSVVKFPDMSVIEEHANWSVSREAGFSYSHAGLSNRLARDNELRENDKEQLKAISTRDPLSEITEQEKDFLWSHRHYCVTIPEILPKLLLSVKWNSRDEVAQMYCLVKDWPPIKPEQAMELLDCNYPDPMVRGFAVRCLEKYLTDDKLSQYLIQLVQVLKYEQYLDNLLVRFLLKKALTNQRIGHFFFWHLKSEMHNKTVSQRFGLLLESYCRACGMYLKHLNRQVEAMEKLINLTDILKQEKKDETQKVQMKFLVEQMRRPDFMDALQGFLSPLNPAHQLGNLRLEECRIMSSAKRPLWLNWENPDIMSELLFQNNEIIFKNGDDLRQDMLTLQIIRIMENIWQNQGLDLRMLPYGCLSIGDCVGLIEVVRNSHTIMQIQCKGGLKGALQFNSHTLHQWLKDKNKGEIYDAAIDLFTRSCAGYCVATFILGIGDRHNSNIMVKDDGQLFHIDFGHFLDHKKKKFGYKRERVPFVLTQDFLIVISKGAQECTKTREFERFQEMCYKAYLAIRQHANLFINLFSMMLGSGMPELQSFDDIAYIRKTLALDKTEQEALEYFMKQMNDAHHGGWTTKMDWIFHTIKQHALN

MDA-MB-361 [2] = assay: Cytotoxicity against human MDA-MB-361 cells; format: functional, cell-based
[3] = Cytotoxicity against human PC3MM2 cells; format: functional, cell-based
[4] = biological target: Serine/threonine-protein kinase mTOR (Homo sapiens, UniProt P42345); assay: Inhibition of mTOR
[5] = biological target: Phosphatidylinositol 4,5-bisphosphate 3-kinase catalytic subunit beta isoform (Homo sapiens, UniProt P42338); assay: Inhibition of PI3Kbeta
Sequence of Phosphatidylinositol 4,5-bisphosphate 3-kinase catalytic subunit beta isoform (P42338 whole entry, canonical isoform): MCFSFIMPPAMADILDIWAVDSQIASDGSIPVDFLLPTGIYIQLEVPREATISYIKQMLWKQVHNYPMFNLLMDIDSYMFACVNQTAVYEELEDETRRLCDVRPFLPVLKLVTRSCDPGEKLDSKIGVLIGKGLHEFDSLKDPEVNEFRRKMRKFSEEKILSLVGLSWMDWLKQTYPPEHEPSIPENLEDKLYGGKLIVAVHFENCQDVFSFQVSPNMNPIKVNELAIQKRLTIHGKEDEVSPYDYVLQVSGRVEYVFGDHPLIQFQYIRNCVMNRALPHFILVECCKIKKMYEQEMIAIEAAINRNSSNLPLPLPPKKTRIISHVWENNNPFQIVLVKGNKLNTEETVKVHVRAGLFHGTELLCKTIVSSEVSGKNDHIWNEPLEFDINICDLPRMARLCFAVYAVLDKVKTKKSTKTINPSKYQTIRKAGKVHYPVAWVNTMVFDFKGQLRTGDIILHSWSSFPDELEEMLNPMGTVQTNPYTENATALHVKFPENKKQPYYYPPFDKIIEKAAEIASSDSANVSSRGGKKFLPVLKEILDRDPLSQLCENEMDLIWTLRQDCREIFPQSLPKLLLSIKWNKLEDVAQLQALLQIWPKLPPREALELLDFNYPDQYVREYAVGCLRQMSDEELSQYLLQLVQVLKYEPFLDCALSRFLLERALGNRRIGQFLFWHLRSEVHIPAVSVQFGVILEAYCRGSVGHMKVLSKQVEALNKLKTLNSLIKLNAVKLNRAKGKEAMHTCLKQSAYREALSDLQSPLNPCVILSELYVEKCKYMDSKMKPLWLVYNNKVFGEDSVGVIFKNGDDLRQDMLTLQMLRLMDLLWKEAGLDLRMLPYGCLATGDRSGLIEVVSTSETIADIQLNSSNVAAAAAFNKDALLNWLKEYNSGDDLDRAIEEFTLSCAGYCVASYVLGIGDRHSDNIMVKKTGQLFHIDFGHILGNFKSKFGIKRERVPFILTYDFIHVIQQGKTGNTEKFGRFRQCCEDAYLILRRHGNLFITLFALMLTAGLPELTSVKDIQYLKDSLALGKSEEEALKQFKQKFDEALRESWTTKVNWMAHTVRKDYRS

[6] = Half life in human microsome; format: ADME; details: microsomes
[7] = Solubility at pH 7.4; format: physicochemical; details: buffer
[8] = tested on: Phosphatidylinositol 4,5-bisphosphate 3-kinase catalytic subunit alpha isoform (Homo sapiens), P42336 [H1047R]; assay: Inhibition of PI3Kalpha H1047R mutant
Sequence of Phosphatidylinositol 4,5-bisphosphate 3-kinase catalytic subunit alpha isoform (Homo sapiens), P42336 [H1047R] (P42336 whole entry H1047R, canonical isoform): as the sequence (P42336 whole entry, canonical isoform) above, with H1047R counted along it

[9] = Half life in mouse microsome; format: ADME; details: microsomes
[10] = Permeability from basolateral to apical side of the human Caco-2 membrane; format: ADME, cell-based; details: read-out: permeability
[11] = biological target: T1, Phosphatidylinositol 4,5-bisphosphate 3-kinase catalytic subunit delta isoform (Homo sapiens, UniProt O00329); assay: Inhibition of PI3delta
T1 sequence (O00329 whole entry): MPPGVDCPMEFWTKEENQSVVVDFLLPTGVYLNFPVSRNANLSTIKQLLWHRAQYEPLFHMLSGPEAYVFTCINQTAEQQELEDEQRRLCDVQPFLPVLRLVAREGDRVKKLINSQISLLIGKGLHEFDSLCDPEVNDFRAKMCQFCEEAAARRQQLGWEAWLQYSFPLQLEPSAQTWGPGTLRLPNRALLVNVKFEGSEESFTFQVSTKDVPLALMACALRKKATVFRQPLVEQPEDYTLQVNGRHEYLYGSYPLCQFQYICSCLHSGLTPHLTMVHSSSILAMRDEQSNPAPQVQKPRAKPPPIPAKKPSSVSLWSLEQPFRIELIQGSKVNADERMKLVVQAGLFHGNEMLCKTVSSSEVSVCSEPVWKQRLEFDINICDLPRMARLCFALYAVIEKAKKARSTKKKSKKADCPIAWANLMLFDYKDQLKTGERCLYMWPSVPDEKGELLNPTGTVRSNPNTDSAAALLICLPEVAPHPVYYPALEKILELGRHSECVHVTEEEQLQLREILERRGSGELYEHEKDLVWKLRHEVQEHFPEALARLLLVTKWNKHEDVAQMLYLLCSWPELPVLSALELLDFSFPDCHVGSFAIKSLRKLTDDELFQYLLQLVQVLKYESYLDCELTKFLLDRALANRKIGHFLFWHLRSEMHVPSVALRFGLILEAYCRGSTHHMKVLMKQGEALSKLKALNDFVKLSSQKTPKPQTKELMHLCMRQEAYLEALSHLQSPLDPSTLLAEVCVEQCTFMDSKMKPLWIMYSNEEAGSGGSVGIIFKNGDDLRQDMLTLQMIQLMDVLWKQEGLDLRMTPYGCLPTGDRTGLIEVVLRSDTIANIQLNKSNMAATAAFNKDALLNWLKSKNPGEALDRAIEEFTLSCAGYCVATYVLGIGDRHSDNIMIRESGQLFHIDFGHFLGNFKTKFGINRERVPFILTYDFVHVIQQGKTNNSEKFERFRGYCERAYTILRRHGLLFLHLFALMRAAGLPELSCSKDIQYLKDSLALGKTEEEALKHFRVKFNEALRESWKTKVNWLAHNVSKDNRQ

[12] = Permeability from apical to basolateral side of the human Caco-2 membrane; format: ADME, cell-based; details: read-out: permeability
Mus musculus [13] = assay: Inhibition of AKT-S473 phosphorylation in nude mouse at 25 mg/kg, iv after 8 hrs; format: functional, organism-based; design: dose 25 mg/kg
MDA-MB-361 [14] = assay: Antitumor activity against human MDA-MB-361 cells xenografted in mouse assessed as reduction in tumor size at 25 mg/kg, iv after 1 to 9 days; format: functional, organism-based; design: dose 25 mg/kg
Mus musculus [15] = assay: Inhibition of AKT-T308 phosphorylation in nude mouse at 25 mg/kg, iv after 8 hrs; format: functional, organism-based; design: dose 25 mg/kg
Mus musculus [16] = assay: Inhibition of AKT-P70S6K phosphorylation in nude mouse at 25 mg/kg, iv after 8 hrs; format: functional, organism-based; design: dose 25 mg/kg
[17] = tested on: Phosphatidylinositol 4,5-bisphosphate 3-kinase catalytic subunit alpha isoform (Homo sapiens), P42336 [E545K]; assay: Inhibition of PI3Kalpha E545K mutant
Sequence of Phosphatidylinositol 4,5-bisphosphate 3-kinase catalytic subunit alpha isoform (Homo sapiens), P42336 [E545K] (P42336 whole entry E545K, canonical isoform): as the sequence (P42336 whole entry, canonical isoform) above, with E545K counted along it

[18] = biological target: Phosphatidylinositol 4,5-bisphosphate 3-kinase catalytic subunit gamma isoform (Homo sapiens, UniProt P48736); assay: Inhibition of PI3gamma
Sequence of Phosphatidylinositol 4,5-bisphosphate 3-kinase catalytic subunit gamma isoform (P48736 whole entry, canonical isoform): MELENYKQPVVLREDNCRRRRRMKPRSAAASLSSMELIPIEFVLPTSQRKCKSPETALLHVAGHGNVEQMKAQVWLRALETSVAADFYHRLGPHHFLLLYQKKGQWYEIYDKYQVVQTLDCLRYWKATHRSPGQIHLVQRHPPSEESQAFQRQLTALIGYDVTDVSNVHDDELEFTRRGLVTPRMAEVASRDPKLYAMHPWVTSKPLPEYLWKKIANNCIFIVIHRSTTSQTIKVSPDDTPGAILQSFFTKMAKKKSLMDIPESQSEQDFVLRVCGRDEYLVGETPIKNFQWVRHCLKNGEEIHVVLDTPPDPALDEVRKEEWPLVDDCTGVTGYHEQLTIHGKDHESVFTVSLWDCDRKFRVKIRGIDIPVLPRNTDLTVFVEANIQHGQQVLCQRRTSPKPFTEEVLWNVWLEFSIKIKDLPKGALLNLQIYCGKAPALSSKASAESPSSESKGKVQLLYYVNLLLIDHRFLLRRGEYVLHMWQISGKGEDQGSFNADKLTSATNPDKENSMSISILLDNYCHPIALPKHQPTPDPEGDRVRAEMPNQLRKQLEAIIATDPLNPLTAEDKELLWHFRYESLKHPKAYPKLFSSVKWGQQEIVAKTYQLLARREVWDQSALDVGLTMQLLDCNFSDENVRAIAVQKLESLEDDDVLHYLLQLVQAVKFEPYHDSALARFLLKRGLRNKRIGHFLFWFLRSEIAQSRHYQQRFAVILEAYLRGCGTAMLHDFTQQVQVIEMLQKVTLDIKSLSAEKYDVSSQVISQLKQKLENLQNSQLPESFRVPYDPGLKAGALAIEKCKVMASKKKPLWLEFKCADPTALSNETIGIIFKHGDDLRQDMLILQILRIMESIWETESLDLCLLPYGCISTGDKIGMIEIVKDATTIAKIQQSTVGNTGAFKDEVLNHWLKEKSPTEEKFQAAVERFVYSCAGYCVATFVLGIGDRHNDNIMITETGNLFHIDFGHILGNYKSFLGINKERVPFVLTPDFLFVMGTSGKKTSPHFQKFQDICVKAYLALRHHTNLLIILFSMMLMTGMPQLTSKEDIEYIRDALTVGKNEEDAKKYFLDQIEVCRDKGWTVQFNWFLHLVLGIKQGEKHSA

[19] = Half life in rat microsome; format: ADME; details: microsomes
Mus musculus [20] = assay: Inhibition of AKT-PS6 phosphorylation in nude mouse at 25 mg/kg, iv after 8 hrs; format: functional, organism-based; design: dose 25 mg/kg

IC50 [1] [nM]	IC50 [4] [nM]	Compound	IC50 (MDA-MB-361 [2]) [nM]	IC50 [3] [nM]	further results
0.4	1.3	CNC(=O)Nc1ccc2c(c1)C(=O)/C(=C\c1c(-c3c(C)nn(C)c3C)[nH]c3ccc(OC)cc13)O2	36	130	
1	1.5	COc1cc(F)c2[nH]c(-c3c(C)nn(C)c3C)c(/C=C3/Oc4ccc(NC(=O)Nc5cccnc5)cc4C3=O)c2c1	39	> 1000	
0.2	4.2	COc1ccc2[nH]c(-c3c(C)nn(C)c3C)c(/C=C3/Oc4ccc(NC(=O)Nc5ccc(C(=O)N6CCOCC6)cc5)cc4C3=O)c2c1	6	94	
0.2	3.8	COc1ccc2[nH]c(-c3c(C)nn(C)c3C)c(/C=C3/Oc4ccc(NC(=O)Nc5ccc(C(=O)N6CCN(C)CC6)cc5)cc4C3=O)c2c1	8	131	
0.5	5.2	COc1ccc2[nH]c(-c3c(C)nn(C)c3C)c(/C=C3/Oc4ccc(NC(=O)Nc5cccnc5)cc4C3=O)c2c1	76	> 10000	
0.4	2.4	CNC(=O)Nc1ccc2c(c1)C(=O)/C(=C\c1c(-c3c(C)nn(C)c3C)[nH]c3c(F)cc(OC)cc13)O2	20	62	
0.3	1.1	COc1ccc2[nH]c(-c3c(C)nn(C)c3C)c(/C=C3/Oc4ccc(NC(=O)Nc5ccc(C(=O)N(C)CCN(C)C)cc5)cc4C3=O)c2c1	< 3	23	
0.2	0.3	COc1cc(F)c2[nH]c(-c3c(C)nn(C)c3C)c(/C=C3/Oc4ccc(NC(=O)Nc5ccc(C(=O)N(C)CCN(C)C)cc5)cc4C3=O)c2c1	< 3	10	IC50 [5]: 0.7 nM; half-life [6]: > 30 min; solubility [7]: 1 µg/mL (≈ 1.47 µM); INH [8]: 0.5 nM; half-life [9]: > 30 min; Papp B→A [10]: 0.3 ×10⁻⁶ cm/s; IC50 [11]: 0.6 nM; Papp A→B [12]: 0.3 ×10⁻⁶ cm/s; inhibition (Mus musculus [13]): Active; Activity (MDA-MB-361 [14]): Active; inhibition (Mus musculus [15]): Active; inhibition (Mus musculus [16]): Active; IC50 [17]: 0.3 nM; IC50 [18]: 2.4 nM; half-life [19]: > 30 min; inhibition (Mus musculus [20]): Active
0.5	2.5	COc1cc(F)c2[nH]c(-c3c(C)nn(C)c3C)c(/C=C3/Oc4ccc(NC(=O)Nc5ccc(C(=O)N6CCOCC6)cc5)cc4C3=O)c2c1	6	57	

Compound	IC50 [1] [nM]	IC50 [4] [nM]	IC50 (MDA-MB-361 [2]) [nM]	IC50 [3] [nM]	further results
COc1ccc2[nH]cc(/C=C3/Oc4ccc(NC(=O)Nc5ccc(C(=O)N6CCN(C)CC6)cc5)cc4C3=O)c2c1	0.9	> 4000	> 1000	> 1000	
